According to patent publication US20060153861A1, “BCR-ABL imatinib resistance-associated peptides and methods of use thereof” (priority 2004, published 2006):

Legend:
[1] = system: T2 cells pulsed with peptide; test: Chromium-51 release cytotoxicity assay with peptide-stimulated T cells; format: cell-based, human; conditions: for killing of T2 cells pulsed with kinase mutant sequence peptides: T cells generated by several stimulations with the peptide, not with control peptide or no peptide; for killing of cells expressing the native peptide: T cell lines after several stimulations with the heteroclitic peptide; for killing of T2 cells pulsed with the heteroclitic peptide: T cell lines after several stimulations, no lysis of T2 without peptide or with control peptide
Description: T lymphocytes were isolated from the same donors by use of negative selection by depletion with an anti-CD11b, anti-CD56 and CD19 MAb (Miltenyi, CA). A total of 1×10^6 pure T lymphocytes were cultured with 1×10^5 autologous DC in RPMI 1640 medium supplemented with 5% heat-inactivated human autologous plasma with bcr-abl synthetic peptides at a concentration of 10 μg/mL and β2 microglobulin at 2 μg/ml in 24-well plates in the presence of 5-10 ng/mL recombinant human IL-7 (Genzyme) and 0.1 ng/ml IL-12. After culture for 3 days 20 U/ml of IL-2 was added. After 10 days, 1×10^6 cells were stimulated again by adding 2×10^5 autologous, magnetically isolated CD14^+ monocytes together with 10 ng/ml of IL-7 and 20 U/ml IL-2 and peptide at a concentration of […]. In some cases, as indicated, after culture for another 7 days, the cells were stimulated a third time, in the same manner. After the second or third stimulation, CD8 T cells were magnetically isolated and cytotoxicity and gamma-IFN (interferon) secretion of these cells was then examined.
The presence of specific CTLs was measured in a standard 4 h-chromium release assay as follows. 4×10^6 targets were labeled with 300 μCi of Na2 ^51CrO+ (NEN Life Science Products, Inc. Boston, Mass.) for 1 hour at 37° C. After washing, cells at 2×10^6/ml concentration were incubated with or without synthetic peptides at a concentration of 10 μg/ml for 2 h at 20° C. in presence of β2 microglobulin at 3 μg/ml. After washing by centrifugation, target cells were resuspended in complete media at 5×10^4 cells per ml and plated in a 96 well U-bottom plate (Becton Dickinson®, NY) at 5×10^3 cells per well with effector cells at effector to target (E/T) ratios ranging from 100:1 to 10:1. Plates were incubated for 5 hours at 37° C. in 5% CO2. Supernatant fluids were harvested and radioactivity was measured -in a gamma counter. Percent specific lysis was determined from the following formula: 100× [(experimental release−spontaneous release)/(maximum release−spontaneous release)]. Maximum release was determined by lysis of targets in 2.5% Triton X-100.
In order to determine whether the in vitro-generated T cells were capable of cytolysis, T cell lines obtained after several stimulations with p210C and b2a2A3 were assayed by chromium-51 release assays using peptide pulsed target cell lines.

[2] = system: T cells from HLA A0201 donors challenged with peptide-pulsed T2 cells; test: Gamma interferon ELISPOT of T cells after in vitro stimulation with peptide; format: cell-based, human; conditions: for heteroclitic response (ELISPOT) / IFN-γ production (ELISPOT): CD3+ T cells from HLA A0201 donors; for heteroclitic response (ELISPOT): FIGS. 8 and 9; for IFN-γ production (ELISPOT): imatinib resistance-associated peptides, two or three stimulations; for recognition of the native sequence by T cells elicited with the peptide / immune response (IFN-gamma secretion, ELISPOT) / immune response as gamma-IFN secretion by CD3+ T cells: healthy HLA A0201 donors; for recognition of the native sequence by T cells elicited with the peptide: T2 pulsed with native peptide; for immune response (IFN-gamma secretion, ELISPOT): second or third round of peptide stimulation, peptide-pulsed T2 targets; for immune response as gamma-IFN secretion by CD3+ T cells: b2a2-derived peptides, FIG. 4
HLA A0201 molecules = molecular target: T1, HLA A0201 molecules (Homo sapiens, UniProt P04439, D140Y/D185E/D98H/E176V/E277Q/G131W/G231S/I119V/I121R/I166T/I218V/L300P/L318F/N151K/N90K/P208A/P217A/Q86G/Q94H/R138H/R169H/T345S); test: T2 assay for peptide binding to HLA A0201 molecules; conditions: T2 cells, FIG. 1
T1 construct: endogenous in cells; host or cells: T2 (174xCEM.T2) human cell line
Description: (§1) T2 cells (TAP-, HLA-A0201^+) were incubated overnight at 27° C. at a concentration of 1×10^6 cells/ml in FCS-free RPMI medium supplemented with 5 μg/ml human β2microglobulin (Sigma, St Louis, Mo.) in the absence (negative control) or presence of either a positive reference tyrosinase peptide or test peptides at various final concentrations (50, 10, 1, and 0.1 μg/ml). Following a 4-hour incubation with 5 μg/ml brefeldin A (Sigma), T2 cells were labeled for 30 minutes at 4° C. with a saturating concentration of anti-HLA-A2.1 (BB7.2) monoclonal antibody (mAb), then washed twice. The cells were then incubated for 30 minutes at 4° C. with a saturating concentration of FITC-conjugated goat IgG F(ab′)2 anti-mouse Ig (Caltag, South San Francisco, Calif.), washed twice, fixed in PBS/1% paraformaldehyde and analyzed using a FACS Calibur® cytofluorometer (Becton Dickinson, Immunocytometry systems, San Jose, Calif.).
The mean intensity of fluorescence (MIF) observed for each peptide concentration (after dividing of the MIF observed without peptide) was used as an estimate of peptide binding and expressed as a fluorescence index. Stabilization assays were performed similarly. Following initial evaluation of peptide binding at time 0, cells were washed in RPMI complete medium to remove free peptides and incubated in the continuous presence of 0.5 pg/ml brefeldin-A for 2, 4, 6 or 8 hours. […]

HLA A0201 = HLA A0201 (Homo sapiens, UniProt P04439, D140Y/D185E/D98H/E176V/E277Q/G131W/G231S/I119V/I121R/I166T/I218V/L300P/L318F/N151K/N90K/P208A/P217A/Q86G/Q94H/R138H/R169H/T345S); test: BIMAS predicted score for binding to HLA A0201; conditions: analogue versus native CMLA2
Description: Peptides with potential CTL epitopes can be predicted by means of a peptide library-based scoring system for MHC class I-binding peptides. AA sequences of the human b3a2 and b2a2 fusion proteins were scanned for peptides with potential binding capacity for HLA A0201, a subtype encompassing 95% of the HLA-A02 allele. HLA-A0201 is expressed in about 40% of the Caucasian population.
Substitutions were determined using the software of the Bioinformatics & Molecular Analysis Section (National Institutes of Health, Washington, D.C.) (Parker K C, et al. J Immunol 1994;152(1):163-75; available at http://bimas.dcrt.nih.gov/cgi-bin/molbio/ken_parker_comboform), which ranks 9-mer or 10-mer peptides on a predicted half life dissociation coefficient from HLA class I molecules. Several analogue peptides were designed whereby one or both anchor amino acids or additional amino acids adjacent to anchor amino acids were modified. […] All the native peptides were predicted to have a half life of less than one minute. Most substitutions affected the primary or secondary anchor motifs (leucine in position 2 or valine in position 9 or 6) but in some cases, a tyrosine was substituted in position 1. […] Also depicted in Table 1 are the predicted half lives according to another software program, […] (Rammensee H G, et al., Immunogenetics 1995; 41(4): 178-228; available at http://syfpeithi.bmi-heidelberg.com).

[3] = molecular target: T2, HLA-A0201 molecule on T2 cells (TAP-, HLA-A0201+) (human); test: T2 binding and stabilization assay, flow cytometry with BB7.2
T2 construct: Empty, thermolabile HLA-A0201 on live T2 cells; also called HLA-A2.1
Description: as §1, with “HLA-A0201⁺)” for “HLA-A0201^+)”, “1×10⁶” for “1×10^6”, “β₂microglobulin” for “β2microglobulin”
The mean intensity of fluorescence (MIF) observed for each peptide concentration (after dividing of the MIF observed without peptide) was used as an estimate of peptide binding and expressed as a fluorescence index. Stabilization assays were performed similarly. Following initial evaluation of peptide binding at time 0, cells were washed in RPMI complete medium to remove free peptides and incubated in the continuous presence of 0.5 pg/ml brefeldin-A for 2, 4, 6 or 8 hours.
For peptides to be immunogenic, in an MHC class I-restricted context, they require the capacity to bind and stabilize MHC class I molecules on the live cell surface. Since the computer prediction models above have 60-80% predictive accuracy, direct measurement of the strength of the interaction between the peptides and the HLA-A0201 molecule was performed, with a conventional binding and stabilization assay that uses the antigen-transporting deficient (TAP2 negative) HLA-A0201 human T2 cells.

[4] = molecular target: T2, HLA-A0201 molecule on T2 cells (TAP-, …); test: T2 assay, referred to in the ELISPOT example

## IIIEFMTYV (listed as Homo sapiens) [T3A2]
[1]
  killing of T2 cells pulsed with kinase mutant sequence peptides: able to kill T2 cells pulsed with specific kinase mutant sequence peptides

## KLGGGQFGV (listed as Homo sapiens) [V2A3]
[2]
  heteroclitic response (ELISPOT): stimulated heteroclitic responses

## KLGGGQYGV (listed as Homo sapiens) [V2A1]
[2]
  IFN-γ production (ELISPOT): greater IFN-γ was produced following a third stimulation

## KLLQRPVAV (listed as Homo sapiens) [p210C]
[2]; 4 patients with chronic phase CML assayed
  immune responses in CML patients: observed in two of the CML patients
[2]; CML patient, two rounds of stimulation
  frequency of CD8+ cells recognizing T2 pulsed with the synthetic peptide: ~400 spot-forming cells (SCF) per 1×10^5 cells
[2]
  recognition of the native sequence by T cells elicited with the peptide: able to recognize their respective native sequences
  immune response (IFN-gamma secretion, ELISPOT): most consistent and significant immune-responses
[1]
  killing of cells expressing the native peptide: able to recognize and kill cells expressing the native peptide
  killing of T2 cells pulsed with the heteroclitic peptide: able to kill T2 cells pulsed with the heteroclitic peptides

## KLSSKALQV (listed as Homo sapiens) [p210B]
[2]
  immune response (IFN-gamma secretion, ELISPOT): no immune response

## KQSSKALQV (listed as Homo sapiens) [p210A]
[2]
  immune response (IFN-gamma secretion, ELISPOT): no immune response

## KVYEGVWKV (listed as Homo sapiens) [K2A3]
[2]
  heteroclitic response (ELISPOT): stimulated heteroclitic responses
[1]
  killing of T2 cells pulsed with kinase mutant sequence peptides: able to kill T2 cells pulsed with specific kinase mutant sequence peptides

## SSKALQRPV (listed as Homo sapiens) [CMLA2, native b3a2 breakpoint peptide, previously described]
HLA A0201 molecules
  binding to HLA A0201 in the T2 assay: weak MHC binder

## TLFKQSSKV (listed as Homo sapiens) [p210D]
[2]
  immune response (IFN-gamma secretion, ELISPOT): produced an immune response in some donors tested

## YIIIEFMTYV (listed as Homo sapiens) [T3B2]
[2]
  heteroclitic response (ELISPOT): stimulated heteroclitic responses

## YLFKQSSKV (listed as Homo sapiens) [p210E]
[2]
  immune response (IFN-gamma secretion, ELISPOT): produced an immune response in some donors tested

## YLGGGQFGV (listed as Homo sapiens) [V2A2]
[2]
  IFN-γ production (ELISPOT): greater IFN-γ production following a second stimulation
  recognition of the native sequence by T cells elicited with the peptide: recognized native sequences

## YLINKEEAL (listed as Homo sapiens) [b2a2 A3]
[2]
  recognition of the native sequence by T cells elicited with the peptide: recognized the native sequence as well
  immune response as gamma-IFN secretion by CD3+ T cells: significant immune respose
[1]
  killing of cells expressing the native peptide: able to recognize and kill cells expressing the native peptide
  killing of T2 cells pulsed with the heteroclitic peptide: able to kill T2 cells pulsed with the heteroclitic peptides

## YLINKEEAV (listed as Homo sapiens) [b2a2 A4]
[2]
  immune response as gamma-IFN secretion by CD3+ T cells: significant immune respose

## YLINKVEAL (listed as Homo sapiens) [b2a2 A5]
[2]
  immune response as gamma-IFN secretion by CD3+ T cells: significant immune respose

## YLKALQRPV (listed as Homo sapiens) [p210F]
HLA A0201
  increase of BIMAS prediction: 700 fold
[2]
  recognition of the native sequence by T cells elicited with the peptide: able to recognize their respective native sequences
  immune response (IFN-gamma secretion, ELISPOT): most consistent and significant immune-responses
HLA A0201 molecules
  binding to HLA A0201 in the T2 assay: high avidity

## KALQRPVAS [p210Cn native]
[3]
  binding result: binds

## YLINKEEAL [b2a2 A3 (analogue)]
[3]
  binding result: binds

## YLINKEEAV [b2a2 A4 (analogue)]
[3]
  binding result: binds

## YLINKVEAL [b2a2 A5 (analogue)]
[3]
  binding result: binds

## SSKALQRPV [CMLA2 native]
[4]
  binding result: binds
